pIC50: −log10 of the molar value. Calls of active or inactive are those of the source. No cut-off for these calls is given here.
Tests used:
Candida albicans [1] = assay: Antifungal activity against Candida albicans SC5314 assessed as growth inhibition after 48 hrs in presence of 2% potassium acetate; assay type: functional; conditions: SC5314, 48 h
Candida albicans [2] = assay: Antifungal activity against Candida albicans SC5314 assessed as growth inhibition after 48 hrs in presence of 2% glucose; assay type: functional; conditions: SC5314, 48 h
Isocitrate lyase = Isocitrate lyase (Candida albicans, UniProt Q9P8Q7); assay: Inhibition of recombinant Candida albicans ATCC 10231 ICL using phenylhydrazine and isocitrate as substrate assessed as formation of glyoxylate phenylhydrazone after 30 mins by spectrophotometric analysis
Chain of Isocitrate lyase (Q9P8Q7 whole entry): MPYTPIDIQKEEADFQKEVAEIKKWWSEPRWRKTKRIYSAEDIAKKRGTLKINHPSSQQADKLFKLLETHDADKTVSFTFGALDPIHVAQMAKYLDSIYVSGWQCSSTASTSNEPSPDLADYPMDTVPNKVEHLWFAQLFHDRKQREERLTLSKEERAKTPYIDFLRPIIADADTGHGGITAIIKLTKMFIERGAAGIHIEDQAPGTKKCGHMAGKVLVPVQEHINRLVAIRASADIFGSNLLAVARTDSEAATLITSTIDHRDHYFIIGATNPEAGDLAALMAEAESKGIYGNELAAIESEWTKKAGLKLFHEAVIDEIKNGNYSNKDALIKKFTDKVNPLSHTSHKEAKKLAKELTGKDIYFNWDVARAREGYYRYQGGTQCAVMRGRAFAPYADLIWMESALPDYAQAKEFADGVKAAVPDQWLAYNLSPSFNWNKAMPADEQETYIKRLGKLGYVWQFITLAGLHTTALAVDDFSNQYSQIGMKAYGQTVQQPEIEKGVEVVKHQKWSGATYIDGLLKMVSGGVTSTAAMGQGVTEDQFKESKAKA

Candida albicans [3] = assay: Antifungal activity against wild type Candida albicans SC5314 assessed as growth inhibition at 12.5 ug/ml after 3 days in presence of glucose; assay type: functional, organism-based
Candida albicans [4] = assay: Downregulation of mRNA expression in icl-deficient Candida albicans MRC11 expressing ICL at 12.5 ug/ml after 4 hrs by RT-PCR analysis relative to control; assay type: functional
Candida albicans [5] = assay: Antifungal activity against icl-deficient Candida albicans MRC10 assessed as growth inhibition at 12.5 ug/ml after 3 days in presence of glucose; assay type: functional, organism-based
Candida albicans [6] = assay: Antifungal activity against icl-deficient Candida albicans MRC11 expressing ICL assessed as growth inhibition at 12.5 ug/ml after 3 days in presence of sodium acetate; assay type: functional, organism-based
Candida albicans [7] = assay: Downregulation of mRNA expression in wild type Candida albicans SC5314 at 12.5 ug/ml after 4 hrs by RT-PCR analysis relative to control; assay type: functional
Candida albicans [8] = assay: Antifungal activity against wild type Candida albicans SC5314 assessed as growth inhibition at 12.5 ug/ml after 3 days in presence of sodium acetate; assay type: functional, organism-based
Candida albicans [9] = assay: Antifungal activity against icl-deficient Candida albicans MRC10 assessed as growth inhibition at 12.5 ug/ml after 3 days in presence of sodium acetate; assay type: functional, organism-based
Candida albicans [10] = assay: Antifungal activity against icl-deficient Candida albicans MRC11 expressing ICL assessed as growth inhibition at 12.5 ug/ml after 3 days in presence of glucose; assay type: functional, organism-based

SMILES | MIC (Candida albicans [1]) [µg/mL] | MIC (Candida albicans [2]) [µg/mL] | pIC50 (Isocitrate lyase) | growth inhibition (GI) (Candida albicans [3]) | fold change (FC) (Candida albicans [4]) | growth inhibition (GI) (Candida albicans [5]) | growth inhibition (GI) (Candida albicans [6]) | fold change (FC) (Candida albicans [7]) | growth inhibition (GI) (Candida albicans [8]) | growth inhibition (GI) (Candida albicans [9]) | growth inhibition (GI) (Candida albicans [10])
O=C(O)CC[N+](=O)[O-] | 200 | > 200 | 4.86 |  |  |  |  |  |  |  | 
COC(=O)C1=C(c2cc(Br)c(O)c(Br)c2)C(=O)OC1=C(c1cc(Br)c(O)c(Br)c1)c1cc(Br)c(O)c(Br)c1 [CADIOLIDE I] | 50 | > 200 | 4.98 |  |  |  |  |  |  |  | 
C[C@@H]1[C@H](O)[C@@H](C)/C=C/C=C/C=C/C=C/C=C/C=C/C=C/[C@H](O[C@@H]2O[C@H](C)[C@@H](O)[C@H](N)[C@@H]2O)C[C@@H]2O[C@](O)(C[C@@H](O)C[C@@H](O)[C@H](O)CC[C@@H](O)C[C@@H](O)CC(=O)O[C@H]1C)C[C@H](O)[C@H]2C(=O)O [AMPHOTERICIN B] | 1.56 | 1.56 |  |  |  |  |  |  |  |  | 
COC(=O)/C(C(=O)c1cc(Br)c(O)c(Br)c1)=C(\C(=O)OC)c1cc(Br)c(O)c(Br)c1 | 100 | > 200 | 4.12 |  |  |  |  |  |  |  | 
COC(=O)/C(C(=O)c1cc(Br)c(O)c(Br)c1)=C(\C(=O)OC)c1ccc(O)c(Br)c1 | 100 | > 200 | 3.91 |  |  |  |  |  |  |  | 

Continued, in another order:

MIC (Candida albicans [1]) [µg/mL] | MIC (Candida albicans [2]) [µg/mL] | pIC50 (Isocitrate lyase) | SMILES | growth inhibition (GI) (Candida albicans [3]) | fold change (FC) (Candida albicans [4]) | growth inhibition (GI) (Candida albicans [5]) | growth inhibition (GI) (Candida albicans [6]) | fold change (FC) (Candida albicans [7]) | growth inhibition (GI) (Candida albicans [8]) | growth inhibition (GI) (Candida albicans [9]) | growth inhibition (GI) (Candida albicans [10])
50 | > 200 | 4.77 | COc1ccc(/C=C2\OC(=O)C([C@@H](O)c3cc(Br)c(OC)c(Br)c3)=C2c2cc(Br)c(O)c(Br)c2)cc1 |  |  |  |  |  |  |  | 
12.5 | > 200 | 5.12 | O=C1O/C(=C\c2cc(Br)c(O)c(Br)c2)C(c2ccc(O)c(Br)c2)=C1C(=O)c1cc(Br)c(O)c(Br)c1 [CADIOLIDE E] | inactive | 5 | inactive | Active | 5 | Active | Active | inactive
50 | > 200 | 4.31 | COc1c(Br)cc([C@H](O)C2=C(c3ccc(O)c(Br)c3)/C(=C/c3ccc(O)c(Br)c3)OC2=O)cc1Br [CADIOLIDE G] |  |  |  |  |  |  |  | 

Reference: ChEMBL document CHEMBL2401674, “Inhibition of Candida albicans isocitrate lyase activity by cadiolides and synoilides from the ascidian Synoicum sp” (Bioorg Med Chem Lett, 2013)
